Laboratory results: ChEMBL document CHEMBL1158237, “Jineol, a Cytotoxic Alkaloid from the Centipede Scolopendra subspinipes” (1996)
In brackets after ≈: the same amount, converted by molar mass. Activity calls are given as the source filed them. The calls are words filed in the database; no cut-off is given here.

Columns and labels:
A549 = assay: Cytotoxicity against human A549 cells by SRB assay; type: functional; details: read-out: ED50 (the source's name)
SK-OV-3 = assay: Cytotoxicity against human SKOV3 cells by SRB assay; type: functional; details: read-out: ED50 (the source's name)
SK-MEL-2 = assay: Cytotoxicity against human SK-MEL-2 cells by SRB assay; type: functional; details: read-out: ED50 (the source's name)
XF498 = assay: Cytotoxicity against human XF498 cells by SRB assay; type: functional; details: read-out: ED50 (the source's name)
HCT-15 = assay: Cytotoxicity against human HCT15 cells by SRB assay; type: functional; details: read-out: ED50 (the source's name)
[1] = tested on: Trichophyton mentagrophytes; assay: Antifungal activity against Trichophyton mentagrophytes by agar diffusion assay; type: functional, organism-based

| Structure (SMILES) | EC50 (A549) [µg/mL] | EC50 (SK-OV-3) [µg/mL] | EC50 (SK-MEL-2) [µg/mL] | EC50 (XF498) [µg/mL] | EC50 (HCT-15) [µg/mL] | Activity [1] |
| --- | --- | --- | --- | --- | --- | --- |
| COc1cccc2c1C(=O)c1c(O)c3c(c(O)c1C2=O)C[C@@](O)(C(=O)CO)C[C@@H]3O[C@H]1C[C@H](N)[C@H](O)[C@H](C)O1 [DOXORUBICIN] | 0.05 (≈ 0.092 µM) | 0.11 (≈ 0.202 µM) | 0.05 (≈ 0.092 µM) | 0.1 (≈ 0.184 µM) | 1.8 (≈ 3.31 µM) | – |
| CC(=O)Oc1cnc2c(OC(C)=O)cccc2c1 [JINEOL ACETATE] | 8 | 14 | 11 | 12 | 8 | – |
| COc1cnc2c(OC)cccc2c1 [JINEOL METHYL ETHER] | 38 (≈ 201 µM) | 32 (≈ 169 µM) | 21 (≈ 111 µM) | 29 (≈ 153 µM) | 42 (≈ 222 µM) | – |
| Oc1cnc2c(O)cccc2c1 [JINEOL] | 5.8 (≈ 36 µM) | 4.5 (≈ 27.9 µM) | 5.6 (≈ 34.7 µM) | 10 (≈ 62.1 µM) | 1.9 (≈ 11.8 µM) | Active |
